Laboratory results published in patent publication US20220251084A1, “PROGRANULIN MODULATORS AND METHODS OF USING THE SAME” (ARKUDA THERAPEUTICS, priority 2019, published 2022).
Where a name gives a salt, the structure may show the parent alone.

What follows are molecules tested on progranulin (PGRN) secretion, BV-2 cells (assay: PGRN assay: progranulin induction cellular assay (ELISA of secreted mouse PGRN)). Settings: not given.
Type: cell-based
Summary of the method: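 Progranulin induction measured in BV-2 cells plated at about 80% confluence the day before, given 1 h to attach, then incubated 16 h. Secreted mouse PGRN quantified by ELISA.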

SMILES | EC50 [nM]
N#Cc1ccc2c(c1)CCN(C(=O)O[C@@H]1CN3CCC1CC3)[C@@H]2c1ccc(F)cc1 [Compound 2034] | 6070
N#Cc1ccc2c(c1)[C@H](c1ccc(F)cc1)N(C(=O)O[C@@H]1CN3CCC1CC3)CC2 [Compound 2035] | > 10000

Same assay, conditions: Mus musculus, BV-2

SMILES | EC50 [nM]
O=C(O[C@@H]1CN2CCC1CC2)N1CCc2ccccc2[C@H]1c1ccc2[nH]c(=O)sc2c1 [Compound 2012] | > 10000

Same assay, conditions: Mus musculus, BV-2, PGRN assay, Table C; secreted mouse PGRN in cell culture medium, ELISA

SMILES | EC50 [nM]
COC(C(=O)N1CCc2ccccc2[C@@H]1c1ccc(F)cc1)C1CN2CCC1CC2 (stereo partly drawn) [Compound 2175, 1-((S)-1-(4-fluorophenyl)-3,4-dihydroisoquinolin-2(1H)-yl)-2-methoxy-2-(quinuclidin-3-yl) ethenone] | 4130
CN(CC1CCNCC1)C(=O)N1CCc2ccccc2[C@@H]1c1ccc(F)cc1 [Compound 2182, 1-(4-fluorophenyl)-N-methyl-N-(piperidin-4-ylmethyl)-3,4-dihydroisoquinoline-2(1H)-carboxamide] | > 10000
CN1CCS(=O)(=O)[C@H](CC(=O)N2CCc3ccccc3[C@@H]2c2ccc(F)cc2)C1 [Compound 2042] | 3200
O=C([C@H](O)[C@@H]1CN2CCC1CC2)N1CCc2ccccc2[C@@H]1c1ccc(F)cc1 (stereo in doubt) [Compound 2075, 1-((S)-1-(4-fluorophenyl)-3,4-dihydroisoquinolin-2(1H)-yl)-2-hydroxy-2-(quinuclidin-3-yl)ethanone] | 895
O=C(CCC1CCNCC1)N1CCc2ccccc2[C@@H]1c1ccc(F)cc1 [Compound 2184, (S)-1-(1-(4-fluorophenyl)-3,4-dihydroisoquinolin-2(1H)-yl)-3-(piperidin-4-yl)propan-1-one] | > 10000
O=C(OC1CC2CCN(C2)C1)N1CCc2ccccc2[C@@H]1c1ccc(F)cc1 (some centres unmarked) [Compound 2002] | 748
CN1CCC(OC(=O)N2CCc3ccccc3[C@@H]2c2ccc(F)cc2)CC1 [Compound 2020] | 230
O=C(OCC12CCN(CC1)CC2)N1CCc2ccccc2[C@@H]1c1ccc(F)cc1F [Compound 2096] | 387
O=C(OCC12CCN(CC1)CC2)N1CCc2ccccc2[C@H]1c1cc(F)cc(F)c1 (single isomer, unassigned) [Compound 2141, quinuclidin-4-ylmethyl-1-(3,5-difluorophenyl)-3,4-dihydroisoquinoline-2(1H)-carboxylate] | > 10000
O=C(OCC12CCN(CC1)CC2)N1CCc2ccccc2[C@@H]1c1ccc(OCc2cncnc2)cc1 [Compound 2149] | > 10000
COc1ncc(COc2ccc([C@@H]3c4ccccc4CCN3C(=O)OCC34CCN(CC3)CC4)cc2)cn1 [Compound 2146] | 1610
CN1C2COCC1CC(OC(=O)N1CCc3ccccc3[C@@H]1c1ccc(F)cc1)C2 (some centres unmarked) [Compound 2067, (1 S)-9′-methyl-3′-oxa-9′-azabicyclo[3.3.1]nonan-7′-yl-1-(4-fluorophenyl)-3,4-dihydroisoquinoline-2(1H)-carboxylate] | 240
O=C(N1CCc2ccccc2[C@@H]1c1ccc(F)cc1)C(F)(F)C1(O)CN2CCC1CC2 (stereo partly drawn) [Compound 2198, 2,2-difluoro-1-((S)-1-(4-fluorophenyl)-3,4-dihydroisoquinolin-2(1H)-yl)-2-(3-hydroxyquinuclidin-3-yl)ethan-1-one] | > 10000
O=C(N[C@H]1CCCNC1)N1CCc2ccccc2[C@@H]1c1ccc(F)cc1 [Compound 2171] | 130
N#Cc1ccc2c(c1)CCN(C(=O)N[C@@H]1CN3CCC1CC3)[C@@H]2c1ccc(F)cc1 [Compound 2015] | 1500
CN1CCC(COC(=O)N2CCc3ccccc3[C@H]2c2cc(F)cc(F)c2)CC1 [Compound 2109] | > 10000
CN1CC2(CC[C@@H]2OC(=O)N2CCc3ccccc3[C@@H]2c2ccc(F)cc2)C1 [Compound 2021] | 735
CN1CCC(C)(OC(=O)N2CCc3ccccc3[C@@H]2c2ccc(F)cc2)CC1 [Compound 2129] | 358
C#CCOc1ccc2c(c1)CCN(C(=O)N[C@@H]1CN3CCC1CC3)[C@H]2c1ccc(F)cc1 [Compound 2063] | > 10000
CN1CCS(=O)(=O)[C@@H](CC(=O)N2CCc3ccccc3[C@@H]2c2ccc(F)cc2)C1 (single isomer, unassigned) [Compound 2043] | > 10000
CN1C2CCC1[C@H](OC(=O)N1CCc3ccccc3[C@H]1c1ccc(F)cc1)CC2 (some centres unmarked) [Compound 2017] | 722

Same assay, conditions: Mus musculus, BV-2, PGRN assay, Table D; secreted mouse PGRN in cell culture medium, ELISA

SMILES | EC50 [nM]
CN1CC[C@@H](O)[C@H](O)[C@H]1COC(=O)N1CCc2ccccc2[C@@H]1c1ccc(F)cc1 [Compound 2289, ((2R,3R,4R)-3,4-dihydroxy-1-methylpiperidin-2-yl)methyl (S)-1-(4-fluorophenyl)-3,4-dihydroisoquinoline-2(1H)-carboxylate] | > 10000
O=C(OCC[C@@H]1CN2CCC1CC2)N1CCc2ccccc2[C@@H]1c1ccc(F)cc1 [Compound 2206, 2-((S)-quinuclidin-3-yl)ethyl (S)-1-(4-fluorophenyl)-3,4-dihydroisoquinoline-2(1H)-carboxylate formate] | 1990
O=C(N1CCCNCC1)N1CCc2ccccc2[C@@H]1c1ccc(F)cc1 [Compound 2264, (S)-(1,4-diazepan-1-yl)(1-(4-fluorophenyl)-3,4-dihydroisoquinolin-2(1H)-yl)methanone] | 1060
CNC[C@@H]1CN(C(=O)N2CCc3ccccc3[C@@H]2c2ccc(F)cc2)CCO1 [Compound 2306] | 129
O=C(O[C@@H]1CCNC1)N1CCc2ccccc2[C@H]1c1ccc(F)cc1 [Compound 2266, (R)-pyrrolidin-3-yl (R)-1-(4-fluorophenyl)-3,4-dihydroisoquinoline-2(1H)-carboxylate] | 255
NC[C@@H]1CN(C(=O)N2CCc3ccccc3[C@@H]2c2ccc(F)cc2)CCO1 [Compound 2302, ((R)-2-(aminomethyl)morpholino)((S)-1-(4-fluorophenyl)-3,4-dihydroisoquinolin-2(1H)-yl)methanone] | 160
O=C(N[C@@H]1CNC[C@@H]1F)N1CCc2ccccc2[C@@H]1c1ccc(F)cc1 [Compound 2353] | 33.9
N[C@H]1CCN(C(=O)N2CCc3ccccc3[C@H]2c2ccc(F)cc2)C1 (single isomer, unassigned) [Compound 2285] | 3440
O=C(NCC1CNC1)N1CCc2ccccc2[C@@H]1c1ccc(F)cc1 [Compound 2257, (S)—N-(azetidin-3-ylmethyl)-1-(4-fluorophenyl)-3,4-dihydroisoquinoline-2(1H)-carboxamide acetate] | 550
CN1CCC(NC(=O)N2CCc3ccccc3[C@@H]2c2ccc(F)cc2)CC1 [Compound 2238, (S)-1-(4-fluorophenyl)-N-(1-methylpiperidin-4-yl)-3,4-dihydroisoquinoline-2(1H)-carboxamide] | 720
CN(CC1CNC1)C(=O)N1CCc2ccccc2[C@@H]1c1ccc(F)cc1 [Compound 2283, (S)—N-(azetidin-3-ylmethyl)-1-(4-fluorophenyl)-N-methyl-3,4-dihydroisoquinoline-2(1H)-carboxamide] | > 10000
O=C(NC[C@@H]1CCCN1)N1CCc2ccccc2[C@H]1c1ccc(F)cc1 [Compound 2218] | 3950

Same assay, conditions: PGRN assay, Table C; secreted mouse PGRN in cell culture medium, ELISA

SMILES | EC50 [nM]
O=C(OC1CCNCC1)N1CCc2ccccc2[C@@H]1c1ccc(F)cc1 [Compound 2176] | 290
CN1CCC(COC(=O)N2CCc3ccccc3[C@@H]2c2ccc(F)cc2)CC1 [Compound 2095] | 3170
